The structures appear in SMILES notation. Where two headings read alike, the source gives them in different places.

For assay [1], the target named is T1, Bcl-w (Homo sapiens, UniProt Q92843).
T1 construct: gene BCL2L2; Purified recombinant His-tagged Bcl-w
T1 sequence (Q92843 2-193): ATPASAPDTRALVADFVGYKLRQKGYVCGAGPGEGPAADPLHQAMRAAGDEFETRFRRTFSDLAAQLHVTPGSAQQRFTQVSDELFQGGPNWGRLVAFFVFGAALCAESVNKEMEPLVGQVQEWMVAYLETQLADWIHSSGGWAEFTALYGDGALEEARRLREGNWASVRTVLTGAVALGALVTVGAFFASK
Briefly: biochemical. Set-up: AlphaLISA competitive displacement of biotin-tagged BAD or BIM peptide from His-tagged Bcl-2 family protein. How it is done:
Purified recombinant His-tagged Bcl-xl, His-tagged Bcl-2 and His-tagged Bcl-w (Cat. No. SRP0187 for Bcl-xl, Cat. No. SRP0186 for Bcl-2 and Cat. No. B1059 for Bcl-w, Sigma-Aldrich) were incubated with increasing concentrations of compounds and a fixed concentration of biotin-tagged BAD (Cat No. SQ-ASPE-66592-1, AnaSpec, Fremont, CA) (for Bcl-xl) or BIM (Cat. No. SQ-ASPE-66592-2, AnaSpec) (for Bcl-2 and Bcl-w) peptides to a final volume of 40 µL in 96-well PCR plates. After 24 h incubation, 5 µL 6X His-Acceptor beads (final concentration 20 µg/mL) (Cat. No. AL128M, Perkin-Elmer, Waltham, MA, USA) were added to each well and incubated for 1 h. Thereafter, 5 µL streptavidin-donor beads were added (final concentration of 20 µg/mL) (Cat. No. 6760002, Perkin-Elmer) to each well and incubated for 30 min. At the end of the incubation period, 17 µL of each sample was transferred into adjacent wells of 384-well proxy plate (Cat. No. 6008280, Perkin-Elmer). The plate was scanned using Alpha program on a Biotek’s Synergy Neo2 multi-mode plate reader (Winooski, VT, USA). Gen5 version 3.04 software (BioTek, USA) was used for the AlphaLISA signal measurements. The inhibition constant (Ki) was calculated using non-linear regression, one site, competitive binding, fit Ki function on GraphPad Prism 7 software based on experimentally determined Kd for each protein/peptide pair.

Assay [2] addresses cereblon (CRBN) (Homo sapiens, UniProt Q96SW2). Put plainly: CRBN-dependent Bcl-xl degradation in WI38 cells: CRBN knockout, pomalidomide competition, N-methyl negative control. In kind it is cell-based.
The target in assay [3] is T2, Bcl-xl (Homo sapiens, UniProt Q07817).
T2 construct: gene BCL2L1; Purified recombinant His-tagged Bcl-xl
Briefly: AlphaLISA/AlphaScreen competitive binding with biotin-tagged BAD peptide.

In assay [4] the target is T3, Bcl-2 (Homo sapiens, UniProt P10415).
T3 construct: gene BCL2; Purified recombinant His-tagged Bcl-2
Set-up: AlphaLISA competitive displacement of biotin-tagged BAD or BIM peptide from His-tagged Bcl-2 family protein. To be noted: inhibitor.

`CC1(C)CCC(c2ccc(Cl)cc2)=C(CN2CCN(c3ccc(C(=O)NS(=O)(=O)c4ccc(N[C@H](CCN5CCOCC5)CSc5ccccc5)c(S(=O)(=O)C(F)(F)F)c4)cc3)CC2)C1` [ABT263]: in assay [1], the Ki is 8.5 nM.
In the case of `CC1(C)CCC(c2ccc(Cl)cc2)=C(CN2CCN(c3ccc(C(=O)NS(=O)(=O)c4ccc(N[C@H](CCN5CCN(C(=O)CCCn6cc(COCCOCCNc7cccc8c7C(=O)N(C7CCC(=O)NC7=O)C8=O)nn6)CC5)CSc5ccccc5)c(S(=O)(=O)C(F)(F)F)c4)cc3)CC2)C1` (some centres unmarked) [PZ, PZ15227], in assay [2], the “CRBN-dependent Bcl-xl degradation in WI38 cells: CRBN knockout, pomalidomide com” value is “PZ had no effect on the levels of Bcl-xl in CRBN knockout cells (Fig. 2e)”. The figures for the Ki in assay [3], in assay [4] and in assay [1] (inhibitor) were 1.9 nM, 3.52 nM and > 1000 nM, respectively.

(Values after paper PMC7181703, “Using proteolysis-targeting chimera technology to reduce navitoclax platelet toxicity and improve its senolytic activity” (Nature Communications, 2020).)
